test system: JR251 or RBL cells; assay: Fluorescence-based store-operated calcium entry assay, IC50 in JR251 or RBL cells; type: cell-based; conditions: in either JR251 or RBL cells, or both
Description: The day prior to performing the assay, RBL-2H3 cells are plated in 50 μL of complete medium in a 384 well plate. Cells are grown at 37° C./6% CO2 overnight and grow to 50-60% confluence by the next day. On the assay day, 1.5 μM Fluo-4-AM dye (Invitrogen) in complete medium is added and incubated for 1 hour at RT. Cells are washed twice in Ca^2+-free HBSS buffer and 35 μL Ca^2+-free HBSS buffer is added to each well. 10 μL of a test compound prepared in a Ca^2+-free HBSS solution at 4.5× of the desired concentration is added to a well and incubated for 5 minutes at RT. 10 μL of thapsigargin prepared in a Ca^2+-free HBSS solution at 5.5× of the desired concentration (5.5 uM) is added to each well and incubated for an additional 25 minutes. The initial baseline fluorescence signal is measured with a FLIPR^384 (Molecular Devices) plate reader. 5 μL of 12× calcium in HBSS (12 mM) is added and changes in cellular fluorescence are measured with the FLIPR^384 plate reader. In each well, the change in the fluorescent signal as a function of time due to calcium entry into the cell is determined by calculating the difference between the fluorescent signal measured 7 seconds after calcium addition and the initial baseline fluorescence signal at time zero (t=0). This parameter is designated Upslope. The IC50 value is calculated as the concentration at which 50% of the Upslope is inhibited.
The day prior to performing the assay, Jurkat E6-1 cells are seeded at a density of 2 million cells/mL in complete medium in a T-175 flask. Cells are grown at 37° C./6% CO2 overnight. On the following day, 1.5 μM Fluo-4-AM dye (Invitrogen) in complete medium is added and incubated for 1 hour at RT. Cells are harvested, washed twice in Ca^2+-free HBSS buffer and plated in 35 μL Ca^2+-free HBSS buffer in a 384 well plate. 10 μL of a test compound prepared in a Ca^2+-free HBSS solution at 4.5× of the desired concentration is added to a well and incubated for 5 minutes at RT. 10 μL of thapsigargin prepared in a Ca^2+-free HBSS solution at 5.5× of the desired concentration (5.5 uM) is added to each well and incubated for an additional 25 minutes. The initial baseline fluorescence signal is measured with a FLIPR^384 (Molecular Devices) plate reader. 5 μL of 12× calcium in HBSS (12 mM) is added and changes in cellular fluorescence are measured with the FLIPR^384 plate reader. In each well, the change in the fluorescent signal as a function of time due to calcium entry into the cell is determined by calculating the difference between the fluorescent signal measured 7 seconds after calcium addition and the initial baseline fluorescence signal at time zero (t=0). This parameter is designated Upslope. The IC50 value is calculated as the concentration at which 50% of the Upslope is inhibited.

Compound | IC50 [µM]
Clc1ccc(C2CC(c3ccco3)=Nc3ccccc3S2)c(Cl)c1 (centres unmarked) [(E)-2-(2,4-dichlorophenyl)-4-(furan-2-yl)-2,3-dihydrobenzo[b][1,4]thiazepine] | < 10
COc1ccc(C2CC(c3ccco3)=Nc3ccccc3S2)c(OC)c1 (centres unmarked) [(E)-2-(2,4-dimethoxyphenyl)-4-(furan-2-yl)-2,3-dihydrobenzo[b][1,4]thiazepine] | < 10
Fc1ccccc1C1CC(c2ccco2)=Nc2ccccc2S1 (centres unmarked) [(E)-2-(2-fluorophenyl)-4-(furan-2-yl)-2,3-dihydrobenzo[b][1,4]thiazepine] | < 10
COc1ccc(C2CC(c3cccs3)=Nc3ccccc3S2)cc1OC (centres unmarked) [(E)-2-(3,4-dimethoxyphenyl)-4-(thiophen-2-yl)-2,3-dihydrobenzo[b][1,4]thiazepine] | < 10
FC(F)Oc1ccc(C2CC(c3ccco3)=Nc3ccccc3S2)cc1 (centres unmarked) [(E)-2-(4-(difluoromethoxy)phenyl)-4-(furan-2-yl)-2,3-dihydrobenzo[b][1,4]thiazepine] | < 10
FC(F)Oc1ccc(C2CC(c3cccs3)=Nc3ccccc3S2)cc1 (centres unmarked) [(E)-2-(4-(difluoromethoxy)phenyl)-4-(thiophen-2-yl)-2,3-dihydrobenzo[b][1,4]thiazepine] | < 10
Fc1ccc(C2CC(c3ccco3)=Nc3ccccc3S2)cc1 (centres unmarked) [(E)-2-(4-fluorophenyl)-4-(furan-2-yl)-2,3-dihydrobenzo[b][1,4]thiazepine] | < 10
Fc1ccc(C2CC(c3cccs3)=Nc3ccccc3S2)cc1 (centres unmarked) [(E)-2-(4-fluorophenyl)-4-(thiophen-2-yl)-2,3-dihydrobenzo[b][1,4]thiazepine] | < 10
FC(F)(F)c1ccc(C2CC(c3ccco3)=Nc3ccccc3S2)cc1 (centres unmarked) [(E)-4-(furan-2-yl)-2-(4-(trifluoromethyl)phenyl)-2,3-dihydrobenzo[b][1,4]thiazepine] | < 10
COc1ccc(C2CC(c3ccco3)=Nc3ccccc3S2)cc1 (centres unmarked) [(E)-4-(furan-2-yl)-2-(4-methoxyphenyl)-2,3-dihydrobenzo[b][1,4]thiazepine] | < 10
Cc1ccc(C2CC(c3ccco3)=Nc3ccccc3S2)cc1 (centres unmarked) [(E)-4-(furan-2-yl)-2-p-tolyl-2,3-dihydrobenzo[b][1,4]thiazepine] | < 10
Cc1ccc(C2CC(c3cccs3)=Nc3ccccc3S2)cc1 (centres unmarked) [(E)-4-(thiophen-2-yl)-2-p-tolyl-2,3-dihydrobenzo[b][1,4]thiazepine] | < 10

test system: Jurkat cells and colon cancer cells; assay: not given; conditions: cited from earlier work

Compound | inhibition of SOCE and proliferation
Cc1nnsc1C(=O)Nc1ccc(-n2nc(C(F)(F)F)cc2C(F)(F)F)cc1 [BTP-2] | inhibits SOCE and proliferation

biological target: STIM1 and Orai1 in HEK293 cells (Homo sapiens, UniProt Q96D31); assay: not given; conditions: HEK293 cells coexpressing STIM1 and Orai1; cited from earlier work
Sequence (Q96D31 whole entry): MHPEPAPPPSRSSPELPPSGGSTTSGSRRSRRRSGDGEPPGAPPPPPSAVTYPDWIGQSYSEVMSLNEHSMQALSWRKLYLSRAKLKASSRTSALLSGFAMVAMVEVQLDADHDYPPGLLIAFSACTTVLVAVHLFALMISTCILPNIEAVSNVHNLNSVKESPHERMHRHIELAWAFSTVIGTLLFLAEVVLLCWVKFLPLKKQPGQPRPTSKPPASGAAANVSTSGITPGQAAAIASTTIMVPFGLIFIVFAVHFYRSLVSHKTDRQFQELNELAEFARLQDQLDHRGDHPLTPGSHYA

Compound | block of store-operated Ca2+ entry
NCCOB(c1ccccc1)c1ccccc1 [2-aminoethoxydiphenylborate] | completely blocked

Reference: US20110269743A1, “PHENYLTHIOPHENYLDIHYDROBENZOTHIAZEPINE INHIBITORS OF STORE OPERATED CALCIUM RELEASE” (CalciMedica, Inc, priority 2008, published 2011)
